Test results taken from patent US12459930B2, “Compounds for the inhibition of unregulated cell growth” (GODAVARI BIOREFINERIES LIMITED, priority 2018, dated 2025).
Several values for one entry are separate records, joined by “and”; a condition that tells them apart may be missing. Equal values may be shown once. Read-outs that look alike come from different tables or passages of the source.

Columns and labels:
[1] = system: PC3 prostate cancer cell line; test: Soft agar colony-formation assay, PC3; type: cell-based; details: 1 week, Alamar Blue, read-out: IC50 in micromolar, PC3 (Soft Agar Assay)
Protocol: (§1) The Soft Agar Colony-formation Assay is an anchorage-independent growth assay in soft agar, which is one of the most stringent assays for detecting malignant transformation of cells. For this assay, malignant cells are cultured with appropriate controls in soft agar medium for 1-2 weeks. Following this incubation period, formed colonies can either be analyzed morphologically using cell stain and quantifying the number of colonies formed.
(§2) Briefly, for Soft Agar Assay a mixture of 50 ul of 2× medium (taken appropriately as per cell line) and 50 ul of 1.2% Bacto Agar were plated on to each well of 96 well micro titer assay plate. 10 ul of cells (of specific plating efficiency pre standardized for respective cell line) were mixed with 20 ul of 2× medium and 30 ul of 0.8% of Bacto Agar and 1.6 ul of drug (of appropriate concentration) in a vial and transferred to the solidified pre layers of the assay plates. The cells were then allowed to grow and form colonies at 37° C. and 5% C02 for 1 week. An intermittent feeding with 50 ul of appropriate 2× medium was performed after 3 days of experimental set up. 16 ul of Alamar Blue (1.5 mg/ml) was then added to all the wells to quantify the developed colonies. The plates were incubated for 24 hrs at 37° C. Absorbance was then measured at 630 nm. XY graph of log Percent viability was then plotted against log drug concentration.
(§3) Following plating efficiencies were standardized for Soft Agar Assay: […]

[2] = system: DU145 prostate cancer cell line; test: In vitro antiproliferative assay (MTT assay), DU145; type: cell-based; details: 48 hrs drug incubation, read-out: IC50 in micromolar, DU145 (MTT assay)
Protocol: (§4) MTT assay is a simple and sensitive assay where, metabolic reducing activity of the cells is measured. The increase of this activity in time is taken as a parameter of cell growth. If treatment with a drug impairs this increase, the action is a consequence of growth inhibition, cell killing or both. […] All cell lines were cultured in a 37° C. incubator with a 5% CO2 environment. Compounds were dissolved in DMSO with a concentration of 0.1M (stock solution). Cells were seeded into 96-well plates at suitable plating efficiency.
(§5) Following plating efficiencies were standardized for MTT assay:
(§6) In the MTT procedure, the cells were plated in 96 well plates as per predetermined plating efficiency (Table1). The plates were then incubated for 24 hrs in 5% CO2 atmosphere at 37° C. Appropriate concentrations of the drugs were then added to the plate and further incubation was carried out for 48 hrs (in 5% CO2 atmosphere at 37° C.). The assay plate was then centrifuged twice at 3000 rpm for 3 mins and supernatant was then discarded. 100 ul of MTT solution (0.5 mg/ml) was then added to each well of the plate and it was further incubated for 4 hrs (in 5% CO2 atmosphere at 37° C.) Following 4 hr incubation, the plate was then centrifuged twice, and supernatant was aspirated off very carefully. 200 ul of DMSO was then added to each well to solubilize. MTT crystals and mixed well by shaking the plate. XY graph of log percent viability was then plotted against log drug concentration.

[3] = system: PC3 spheres (cancer stem cells); test: In vitro sphere-forming assay (cancer stem cells), PC3 in Prostosphere media; details: for 3D sphere count of PC3 in Prostosphere media: 2000 cells/well, n = 6 ± S.D; for viability at 0.0025 µM: read-out: % Viability of spheres (PC3), 0.0025 uM; for viability at 0.0025 µM / viability at 0.025 µM / viability at 0.25 µM / viability at 2.5 µM / viability at 25 µM: GCD = 100% viability; for viability at 0.025 µM: read-out: % Viability of spheres (PC3), 0.025 uM; for viability at 0.25 µM: read-out: % Viability of spheres (PC3), 0.25 uM; for viability at 2.5 µM: read-out: % Viability of spheres (PC3), 2.5 uM; for viability at 25 µM: read-out: % Viability of spheres (PC3), 25 uM
Excerpt: (§7) In Vitro Sphere-forming Assay: Sphere assay measures the ability of cancer stem cells (CSCs) to form spheres in specially designed serum-free medium.
Materials and Reagents:50×B27 Supplement (Life Technologies, Invitrogen, Catlog No.: 17502-044), Fibroblast Growth Factor (FGF) (Sigma-Aldrich, Catlog No.: F029125), Epidermal Growth Factor (EGF) (Sigma-Aldrich, Catlog No.: E9644), Insulin (Sigma, Catlog No.: 19278), Dulbecco's Modified Eagle Medium/F12 (HiMedia Catlog No.: AL139-6), Dulbecco's Phosphate Buffered Saline (HiMedia Catlog No.: TL1006), Trypan Blue (TC193), Prostate Epithelial Media (LONZA, Catlog No.: CC-3166) MEGM (LONZA, Catlog No.: CC-3051), Heparin (Sigma, Catlog No.: H3393), Penstrep (HiMedia, Catlog No.: A002)
Prostosphere Media Preparation (For 100 mL): 1 g methyl cellulose autoclaved with magnetic stirrer, 100 mL plain media (Prostate Epithelial Basal Medium) was added and dissolved, under magnetic stirring. After complete dissolution, Insulin—40 μL, B27—2 mL, EGF—80 μL, Penstrep—1 ml was added.
(§8) Procedure—The cells were trypsinised and made into single-cell suspension by passing through cell strainers (100 μl and 40 μl, respectively), The cells were diluted at a concentration of 2000 cells/100 μL and suspended in either Mammosphere (for breast cell lines) or Prostosphere (for prostate cell lines). 100 μL of this suspension was added into each well of 96-well suspension plates and incubated at 37 C, 50 CO2 for 24 hrs. Appropriate concentrations of the drugs (2 L) were added into respective wells with 100 μL of stem cell culture medium. Plates were incubated at 37° C., 50% CO2 for 72 hrs. After incubation, 2.5 μL of the respective drug concentration and 50 μL of stem cell culture medium were added into each well and the plates were further incubated at 37° C., 500 CO2 for 72 hrs. 3 μL of the respective drug concentration was added with 50 μL of stem cell culture medium again after incubation and plates were reincubated for 72 hrs at 37° C., 500 CO2. Number of primary spheres formed for each concentration were counted. The spheres were converted to 0 viability of spheres compared to untreated (Growth Control with DMSO, GCD).

[4] = system: PC3 prostate cancer cell line; test: In vitro antiproliferative assay (MTT assay), PC3; type: cell-based; details: 48 hrs drug incubation, read-out: IC50 in micromolar, PC3 (MTT assay)
Protocol: as §4, §5, §6

[5] = system: MDAMB231 breast cancer cell line; test: Soft agar colony-formation assay, MDAMB231; type: cell-based; details: 1 week, Alamar Blue, read-out: IC50 in micromolar, MDAMB231 (Soft Agar Assay)
Protocol: as §1, §2, §3

[6] = system: MDAMB231 spheres (cancer stem cells); test: In vitro sphere-forming assay (cancer stem cells), MDAMB231 in Mammosphere media; details: for 3D sphere count of MDAMB231 in Mammosphere media: 2000 cells/well, n = 6 ± S.D; for viability at 0.0025 µM / viability at 0.025 µM / viability at 0.25 µM / viability at 2.5 µM / viability at 25 µM: Homo sapiens, MDA-MB-231, read-out: % Viability of spheres (MDAMB231)
Protocol: as §7
Mammosphere Media Preparation (For 100 mL): 1 g methyl cellulose autoclaved with magnetic stirrer, 100 ml plain media (MEBM) was added and dissolved under magnetic stirring. After complete dissolution FGF—80 μL, EGF—40 μL, Penstrep—1 mL, Heparin—400 μL was added.
as §8

[7] = system: MDAMB231 breast cancer cell line; test: In vitro antiproliferative assay (MTT assay), MDAMB231; type: cell-based; details: 48 hrs drug incubation, read-out: IC50 in micromolar, MDAMB231 (MTT assay)
Protocol: as §4, §5, §6

[8] = Homo sapiens, MDA-MB-231, 168 h

Row | Compound | IC50 ([1]; 168 h) | IC50 ([2]; Homo sapiens, DU-145, 48 h) | IC50 ([4]; 48 h) | IC50 [5, 8] | 3D sphere count of PC3 in Prostosphere media ([3]; 0.0025 uM) | 3D sphere count of PC3 in Prostosphere media ([3]; 0.025 uM) | 3D sphere count of PC3 in Prostosphere media ([3]; 0.25 uM) | 3D sphere count of PC3 in Prostosphere media ([3]; 2.5 uM) | 3D sphere count of PC3 in Prostosphere media ([3]; 25 uM) | viability at 0.0025 µM [3] | viability at 0.025 µM [3] | viability at 0.25 µM [3] | viability at 2.5 µM [3] | viability at 25 µM [3] | 3D sphere count of MDAMB231 in Mammosphere media ([6]; 0.0025 uM) | 3D sphere count of MDAMB231 in Mammosphere media ([6]; 0.025 uM) | 3D sphere count of MDAMB231 in Mammosphere media ([6]; 0.25 uM) | 3D sphere count of MDAMB231 in Mammosphere media ([6]; 2.5 uM) | 3D sphere count of MDAMB231 in Mammosphere media ([6]; 25 uM) | viability at 0.0025 µM [6] | also measured
1 | c1cc2c(cc1-c1ccc(OCCCCCCNC3CCCCC3)c3c1CCCC3)OCO2 [Formula XVIII, N-(6-(5-(benzo[d][1,3]dioxol-5-yl)-1,2,3,4-tetrahydronaphthalen-8-yloxy)hexyl) cyclohexanamine] | 2.63 µM | 0.348 µM | 0.32 µM | 4.18 µM | 50(±4) | 43(±5) | 39(±3) | 27(±4) | 19(±3) | 63% | 54% | 49% | 34% | 24% | 54(±3) | 49(±4) | 39(±2) | 28(±3) | 19(±1) | 65% | viability at 0.025 µM [6]: 58%; viability at 0.25 µM [6]: 45%; viability at 2.5 µM [6]: 34%; viability at 25 µM [6]: 24%; IC50 ([7]; Homo sapiens, MDA-MB-231, 48 h): 0.398 µM
2 | O=C1OCc2c1c(-c1ccc3c(c1)OCO3)c1cc3c(cc1c2OCCCCN1CCOCC1)OCO3 [Formula XIII, 4-(4-morpholinobutoxy)-9-(benzo[d][1,3]dioxol-5-yl)-6,7-methylenedioxynaphtho[2,3-c]furan-1(3H)-one] | 3.84 µM | 8.85 µM | 8.83 µM | 3.03 µM | 49(±3) | 44(±4) | 35(±3) | 32(±3) | 27(±3) | 62% | 55% | 44% | 40% | 34% | 49(±3) | 40(±3) | 36(±2) | 30(±4) | 21(±3) | 62% | viability at 0.025 µM [6]: 50%; viability at 0.25 µM [6]: 45%; viability at 2.5 µM [6]: 38%; viability at 25 µM [6]: 26%; IC50 ([7]; Homo sapiens, MDA-MB-231, 48 h): 7.29 µM
3 | N.N.[Cl][Pt][Cl] [Cisplatin, reference compound] |  |  |  |  |  |  |  |  |  |  |  |  |  |  |  |  |  |  |  |  | IC50 [1]: 33.4 µM; IC50 [2]: 29.8 µM; 3D sphere count of PC3 in Prostosphere media ([3]; 250 uM): 29(±2) and 29(±5) and 25(±2) and 27(±2); IC50 [4]: 24 µM; IC50 [5]: 26.2 µM; 3D sphere count of MDAMB231 in Mammosphere media ([6]; 250 uM): 24(±3) and 25(±2); IC50 [7]: 29.4 µM

Now from value to compound, other results behind:

Row | IC50 ([1]; 168 h) | IC50 ([2]; Homo sapiens, DU-145, 48 h) | IC50 ([4]; 48 h) | IC50 [5, 8] | Compound | 3D sphere count of PC3 in Prostosphere media ([3]; 0.0025 uM) | 3D sphere count of PC3 in Prostosphere media ([3]; 0.025 uM) | 3D sphere count of PC3 in Prostosphere media ([3]; 0.25 uM) | 3D sphere count of PC3 in Prostosphere media ([3]; 2.5 uM) | 3D sphere count of PC3 in Prostosphere media ([3]; 25 uM) | viability at 0.0025 µM [3] | viability at 0.025 µM [3] | viability at 0.25 µM [3] | viability at 2.5 µM [3] | viability at 25 µM [3] | 3D sphere count of MDAMB231 in Mammosphere media ([6]; 0.0025 uM) | 3D sphere count of MDAMB231 in Mammosphere media ([6]; 0.025 uM) | 3D sphere count of MDAMB231 in Mammosphere media ([6]; 0.25 uM) | 3D sphere count of MDAMB231 in Mammosphere media ([6]; 2.5 uM) | 3D sphere count of MDAMB231 in Mammosphere media ([6]; 25 uM) | viability at 0.0025 µM [6] | also measured
4 | 5.12 µM | 8.18 µM | 12.6 µM | 2.7 µM | O=C1OCc2c1c(-c1ccc3c(c1)OCO3)c1cc3c(cc1c2OCCN1CCOCC1)OCO3 [Formula XI, 4-(2-morpholinoethoxy)-9-(benzo[d][1,3]dioxol-5-yl)-6,7-methylenedioxynaphtho[2,3-c]furan-1(3H)-one] | 51(±3) | 43(±3) | 32(±4) | 21(±3) | 0(±0) | 62% | 52% | 39% | 25% | 0% | 51(±3) | 41(±3) | 31(±3) | 20(±3) | 0(±0) | 64% | viability at 0.025 µM [6]: 52%; viability at 0.25 µM [6]: 39%; viability at 2.5 µM [6]: 25%; viability at 25 µM [6]: 0%; IC50 ([7]; Homo sapiens, MDA-MB-231, 48 h): 3.2 µM
5 | 2.07 µM | 0.723 µM | 1.77 µM | 1.73 µM | c1ccc2c(-c3ccc4c(c3)OCO4)ccc(OCCCCN3CCOCC3)c2c1 [Formula VIII, 4-(4-(1-(benzo[d][1,3]dioxol-5-yl)naphthalen-4-yloxy)butyl)morpholine] | 57(±2) | 49(±3) | 41(±2) | 36(±2) | 28(±3) | 69% | 59% | 50% | 44% | 34% | 54(±3) | 49(±4) | 39(±2) | 28(±3) | 19(±1) | 76% | viability at 0.025 µM [6]: 69%; viability at 0.25 µM [6]: 55 ± 2%; viability at 2.5 µM [6]: 39%; viability at 25 µM [6]: 26%; IC50 ([7]; Homo sapiens, MDA-MB-231, 48 h): 1.15 µM
